{"source": "paper PMC2830424", "about": "“The Anopheles gambiae Odorant Binding Protein 1 (AgamOBP1) Mediates Indole Recognition in the Antennae of Female Mosquitoes” (PLoS ONE, 2010)", "key": {"[1]": {"biological_target": "T1, AgamOBP1 (Odorant Binding Protein 1) (Anopheles gambiae, UniProt Q8T6S0)", "T1 sequence (Q8T6S0 20-144)": "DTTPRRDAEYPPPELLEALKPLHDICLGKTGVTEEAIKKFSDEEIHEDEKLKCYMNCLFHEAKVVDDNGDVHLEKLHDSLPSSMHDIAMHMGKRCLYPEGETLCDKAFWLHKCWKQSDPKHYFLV", "assay": "fluorescence displacement of 1-NPN (screening assay)", "set-up": "gene OBP-1; recombinant OBP1 (r-OBP1)", "description": "fluorescence displacement of 1-NPN (screening assay) on AgamOBP1 (Odorant Binding Protein 1) | 3-methyl indole (skatole) […] also bound to r-OBP1 but with an apparently lower affinity"}, "[2]": {"biological_target": "T1, AgamOBP1 (Odorant Binding Protein 1)", "assay": "3H-indole scintillation proximity (Ni-NTA FlashPlate) binding; confirmed by 1-NPN fluorescence displacement", "set-up": "gene OBP-1; purified 6xHis tagged r-OBP1", "description": "3H-indole scintillation proximity (Ni-NTA FlashPlate) binding; confirmed by 1-NPN fluorescence displacement on AgamOBP1 (Odorant Binding Protein 1) | Binding curve of ^3H indole to r-OBP1 in Ni-NTA FlashPlates."}, "[3]": {"biological_target": "T1, AgamOBP1 (Odorant Binding Protein 1)", "assay": "fluorescent reporter dye of the displacement assay (no Kd reported)", "set-up": "gene OBP-1; recombinant OBP1 (r-OBP1)"}}}
{"smiles": "Cc1c[nH]c2ccccc12", "note": "[3-methyl indole]", "values": [{"measurement": "fluorescence displacement of 1-NPN (screening assay)", "setting": "[1]", "value": "3-methyl indole (skatole) [...] also bound to r-OBP1 but with an apparently lower affinity"}]}
{"smiles": "c1ccc2[nH]ccc2c1", "note": "[indole]", "values": [{"measurement": "Kd", "setting": "[2]", "value": 2300, "unit": "nM"}]}
{"smiles": "c1ccc(Nc2cccc3ccccc23)cc1", "note": "[1-NPN, N-Phenyl-1-Naphthylamine]", "values": [{"measurement": "fluorescent reporter dye displacement", "setting": "[3]", "value": "increasing concentrations of indole displaced more 1-NPN dye from the AgamOBP1 binding pocket"}]}
